Laboratory results: US5486511A, “4-amino-17β-(cyclopropyloxy)androst-4-en-3-one, 4-amino-17β-(cyclopropylamino)androst-4-en-3-one and related compounds as C17-20 lyase and 5α-reductase” (Merrell Dow Pharmaceuticals Inc., priority 1994, dated 1996)
One block for each molecule: values may come before it.

How the values were obtained:
[1] = system: canine lyase; test: Inhibition of canine steroid C17,20 lyase (testicular microsomes); format: biochemical, dog; details: substrate, dog lyase
Protocol: (§1) The activity of the present compounds as inhibitors of steroid C17,20 lyase was established using microsomal preparations of the steroid C17,20 lyase enzyme from human or laboratory animal testes. Human testes used for this purpose were obtained from therapeutic orchiectomies. Specifically, microsomes were isolated from human, cynomolgus monkey, dog, rat or athymic nude mouse testicular tissue. The compound to be tested was dissolved in dimethyl sulfoxide and diluted in 0.05M potassium phosphate buffer to give the desired concentrations of the test compound. The potassium phosphate buffer was at pH 7.4 for the human, monkey and dog lyase assays and at pH 7.2 for the rat and athymic nude mouse lyase assays. Assays also contained 1 mM NADPH, 5 mM glucose-6-phosphate, 1 IU/ml glucose-6-phosphate dehydrogenase (an NADPH regenerating system) and microsomal protein in a total volume of 0.2 mL. Control assays contained all components including dimethyl sulfoxide, but with no test compound. All assays were performed in duplicate. […] Radioactivity in the steroid peaks was measured by a Radiomatic Model HS Flo-One detector.
(§2) The enzyme activity for each incubate was calculated from the percent conversion of substrate to products, and the results were expressed as percent inhibition of control. […] The Ki and kinact for time dependent inhibitors were determined by graphical analysis of Kitz-Wilson plots. […]

[2] = system: nude mouse lyase; test: Inhibition of athymic nude mouse steroid C17,20 lyase (testicular microsomes); format: biochemical; details: substrate, athymic nude mouse enzyme
Protocol: as §1, §2

[3] = system: rat lyase; test: Inhibition of rat steroid C17,20 lyase (testicular microsomes); format: biochemical; details: substrate, rat enzyme
Protocol: as §1, §2

[4] = substrate: CC(=O)[C@@]1(O)CC[C@H]2[C@@H]3CC=C4C[C@@H](O)CC[C@]4(C)[C@H]3CC[C@@]21C; test: Inhibition of human steroid C17,20 lyase (testicular microsomes); format: biochemical; details: other: substrate, 34.0 °C
Protocol: as §1, §2

[5] = substrate: CC(=O)[C@@]1(O)CC[C@H]2[C@@H]3CC=C4C[C@@H](O)CC[C@]4(C)[C@H]3CC[C@@]21C; test: Inhibition of cynomolgus monkey steroid C17,20 lyase (testicular microsomes), time dependent, Kitz-Wilson; format: biochemical; details: other: substrate, 34.0 °C
Protocol: as §1, §2

Molecule: CC(=O)[C@@]1(O)CC[C@H]2[C@@H]3CC=C4C[C@@H](O)CC[C@]4(C)[C@H]3CC[C@@]21C [17α-hydroxypregnenolone, reference compound]
Km [1]: 0.06 µM

Km [2]: 0.03 µM
Km [3]: 0.1 µM
Molecule: CC(=O)[C@@]1(O)CC[C@H]2[C@@H]3CCC4=CC(=O)CC[C@]4(C)[C@H]3CC[C@@]21C [17α-hydroxyprogesterone, reference compound]

B1: human lyase (Homo sapiens) (protein)
chain: MWELVALLLLTLAYLFWPKRRCPGAKYPKSLLSLPLVGSLPFLPRHGHMHNNFFKLQKKYGPIYSVRMGTKTTVIVGHHQLAKEVLIKKGKDFSGRPQMATLDIASNNRKGIAFADSGAHWQLHRRLAMATFALFKDGDQKLEKIICQEISTLCDMLATHNGQSIDISFPVFVAVTNVISLICFNTSYKNGDPELNVIQNYNEGIIDNLSKDSLVDLVPWLKIFPNKTLEKLKSHVKIRNDLLNKILENYKEKFRSDSITNMLDTLMQAKMNSDNGNAGPDQDSELLSDNHILTTIGDIFGAGVETTTSVVKWTLAFLLHNPQVKKKLYEEIDQNVGFSRTPTISDRNRLLLLEATIREVLRLRPVAPMLIPHKANVDSSIGEFAVDKGTEVIINLWALHHNEKEWHQPDQFMPERFLNPAGTQLISPSVSYLPFGAGPRSCIGEILARQELFLIMAWLLQRFDLEVPDDGQLPSLEGIPKVVFLIDSFKVKIKVRQAWREAQAEGST
notes: microsomes were isolated from human, cynomolgus monkey, dog, rat or athymic nude mouse testicular tissue; from tissue; host or cells: human testis microsomes (therapeutic orchiectomies)
Km [4]: 0.30 µM

B2: cynomolgus monkey C17,20 lyase (Macaca fascicularis) (protein)
chain: MWELVALLLLTLAYLFWPKRRCPGAKYPKSLLSLPLVGSLPFLPRHGHMHNNFFKLQKKYGPIYSVRMGTKTTVIVGHHQLAKEVLIKKGKDFSGRPQVTTLDILSNNRKGIAFADYGAHWQLHRRLAMATFALFKDGDQKLEKIICQEISTLCDMLATHNGQTIDISFPVFVAITNVISLICFNISYKNGDPELKIVHNYNEGIIDSLGKESLVDLFPWLKVFPNKTLEKLKRHVKTRNDLLTKIFENYKEKFHSDSITNMLDVLMQAKMNSDNGNAGPDQDSELLSDNHILTTIGDIFGAGVETTTSVVKWIVAFLLHNPQVKKKLYEEIDQNVGFSRTPTISDRNRLLLLEATIREVLRIRPVAPMLIPHKANVDSSIGEFAVDKGTHVIINLWALHHNEKEWHQPDQFMPERFLNPAGTQLISPSLSYLPFGAGPRSCIGEILARQELFLIMAWLLQRFDLEVPDDGQLPSLEGNPKVVFLIDSFKVKIKVRQAWREAQAEGST
notes: microsomes were isolated from human, cynomolgus monkey, dog, rat or athymic nude mouse testicular tissue; from tissue; host or cells: cynomolgus monkey testis microsomes
Km [5]: 0.11 µM
